Source: US20210290676A1, “IMPROVING THE EFFICACY AND SAFETY OF ADOPTIVE CELLULAR THERAPIES” (University of Southern California, priority 2018, published 2021)

Assays:
Format in all cases: cell-based, human
[1] = system: Pgp+ (DiOC2(3)-dye effluxing) T cells; experiment: DiOC2(3) dye efflux flow cytometry of inhibitor-treated T cells; settings: treatment for 13 days, IL2 + CD3 and CD28 antibodies
Protocol: (§1) The use of P-glycoprotein (Pgp)-mediated efflux of DiOC2(3) to isolate stem like T cells for adoptive cellular therapy has been described in application no. […] In the following examples, DiOC2(3) staining was used to study the effect of different inhibitors on generation of stem like T cells.
(§2) DAY 0: Blood was obtained from unidentified donor. After RBC lysis, PBMC were collected using Ficoll-Hypaque separation. […] T cells were cultured in three different conditions: • 1. XVIVO 15 medium (Lonza) with IL2 50 IU/ml, CD3 antibody (30 ng/ml) and CD28 antibody (30 ng/ml). • 2. XVIVO 15 medium (Lonza) with CD3 antibody (30 ng/ml) and CD28 antibody (30 ng/ml). • 3. XVIVO 15 medium (Lonza) with IL2 50 IU/ml DAY 1: Cells were plated in a 6-well plate at a density of 1 million cells in 2 ml/of media (as described above) and treated with different inhibitors
(§3) The cell growth medium was changed in 6-well plates and fresh drugs were added at same concentration for one more week.
(§4) […] (DAY 11): Culture medium was changed and fresh drugs were added in 6-well plates.
(§5) Subsequently, cells were washed with RPMI medium and dye was effluxed at 37° C. for 90 min. Cells were washed with […], stained with CD62L-APC (5 μl/100 μl/sample) at 4° C. for 1 h, washed twice with PBS+1% FBS and analyzed on flow cytometer to check if these drugs treatment leads to increase in Pgp+/CD62L positive population.
(§6) Day 0: Blood was obtained from unidentified donor. After RBC lysis, PBMC were collected using Ficoll-Hypaque separation. 200 million T cells were isolated from PBMCs using CD3 microbeads. T cells were cultured overnight in XVIVO 15 medium (Lonza) with IL2 (50 IU/ml), 30 ng/ml of CD3 and CD28 antibodies
(§7) Day 1: Cells were plated in 24-well plates at a density of 0.3 million cells/ml in each well and treated with different drugs.
(§8) On day 7, culture medium was replaced with fresh medium with fresh drugs.
(§9) On day 13, culture medium was replaced with fresh medium and fresh drugs. Half of the cells were transferred to 6-well plates.
(§10) Day 14: An aliquot of cells with all the treatments listed above (for 13 days) was used to stain the cells with DiOC2(3) (60 ng/ml in RPMI medium) at 4° C. for 40 min, washed with RPMI medium, DiOC2(3) dye was effluxed at 37° C. for 90 min, washed with PBS+1% FBS, stained with CD62L-APC antibody. CD62L is a marker for resting T cells. (5 μl/100 μl/sample) at 4° C. for 1 h, washed twice with PBS+1% FBS and analyzed on flow cytometer to check if these drugs are affecting the dye-effluxing or Pgp+ (i.e., DiOC2(3)-dull) T-cell population.

[2] = system: Pgp+ (DiOC2(3)-dye effluxing cells) and CD62L+ T cells; experiment: DiOC2(3) dye efflux plus CD62L-APC staining, flow cytometry of inhibitor-treated T cells; settings: treatment for 13 days, IL2 + CD3 and CD28 antibodies
Protocol: as §1, §2, §3, §4, §5, §6, §7, §8, §9, §10

[3] = system: CD8+CD45RA+CCR7+CD62L+ T cells; experiment: Flow cytometry for CD8, CD45RA, CCR7 and CD62L on inhibitor-treated T cells; settings: cells cultured for 14 days
Protocol: as §2
(§11) A second aliquot of the cells cultured for 13 days with all the treatments listed above (1-21) was washed with PBS+1% FBS, stained with CD8-PerCP, CD45RA-FITC, CCR7-PE and CD62L-APC (5% Y/100 μl/sample for each of 4 antibodies) at 4° C. for 1 h, washed twice with PBS+100 FBS and analyzed on flow cytometer to check if these drugs are enriching T stem cells showing surface expression of CD8+CD45RA+CCR7+CD62L+.
as §6, §7, §8, §9
as §11, with “14” for “13”, “above” for “above (1-21)”, “(5 ul/100 ul/sample” for “(5% Y/100 μl/sample”, “PBS+1%” for “PBS+100”, “enriching for” for “enriching”, “T” for “T stem”

[4] = system: CD45RA+CCR7+CD62L+ T cells; experiment: Flow cytometry for CD45RA, CCR7 and CD62L on inhibitor-treated T cells (all T cells); settings: cells cultured for 14 days
Protocol: as §2, §11, §6, §7, §8, §9
as §11, with “14” for “13”, “above” for “above (1-21)”, “(5 ul/100 ul/sample” for “(5% Y/100 μl/sample”, “PBS+1%” for “PBS+100”, “enriching for” for “enriching”, “T” for “T stem”

Structure (SMILES) | p2: pgp+ from Live cells ([1]; 100 nM) | p2: pgp+ from Live cells ([1]; 500 nM) | p5: double +ve pgp+ and CD62L-APC+ from Live cells ([2]; 100 nM) | p5: double +ve pgp+ and CD62L-APC+ from Live cells ([2]; 500 nM) | GATE P4 CD8(PerCP)+, CD45RA(FITC)+, CCR7 (PE)+, CD62L(APC) ([3]; 100 nM) | GATE P4 CD8(PerCP)+, CD45RA(FITC)+, CCR7 (PE)+, CD62L(APC) ([3]; 500 nM) | GATE P6 CD45RA(FITC)+, CCR7 (PE)+, CD62L(APC) ([4]; 100 nM) | GATE P6 CD45RA(FITC)+, CCR7 (PE)+, CD62L(APC) ([4]; 500 nM)
Cc1ccc(Cl)c(Nc2ccccc2C(=O)O)c1Cl [MECLO] | 22.22 | 20.11 | 3.74 | 3.72 | 57.65% | 75.78% | 53.02% | 66.64%
O=C1CN=C(c2ccc[nH]2)c2cc(Cl)ccc2N1 [R05335] | 14.71 | 16.22 | 2.55 | 2.3 | – | 79.9% | – | 69.95%
CCN(c1cc(-c2ccc(CN3CCOCC3)cc2)cc(C(=O)NCc2c(C)cc(C)[nH]c2=O)c1C)C1CCOCC1 [TAZE] | 42.9 | – | 14.5 | – | 59.72% | – | 52.24% | –
